Data: patent US20170000749A1, “Methods for Treating Cognitive Disorders Using Inhibitors of Histone Deacetylase” (Forum Pharmaceuticals, Inc., priority 2008, published 2017)
Like-named read-outs stand apart in the source and are kept apart here.

Legend:
[1] = system: HDAC activity in primary mouse cortical cultures; test: Whole-Cell Histone Deacetylase (HDAC) Inhibition Assay in Primary Mouse Cortical Cultures; format: cell-based; settings: whole-cell (WC), mouse cortical neurons, read-out: HDAC Inhibition (IC50 μM) WC mouse cortical neurons
Procedure, shortened: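 Primary neocortical neurons from E17 Balb/C mouse embryos were plated at 50000 cells/well and treated at DIV9 with ten-point DMSO dilutions for 16-18 h at 37° C, in triplicate. BOC-Lys(Ac)-AMC substrate was then added for 1 h. Fluor de Lys developer containing 1 uM TSA produced a fluorophore, which was read.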

[2] = molecular target: one or more of HDAC-1, HDAC-2, HDAC-3, HDAC-4, HDAC-5, HDAC-6, HDAC-7, HDAC-8, HDAC-9, HDAC-10 and HDAC-11; test: Inhibition of Histone Deacetylase Enzymatic Activity (Boc-Lys(Ac)-AMC substrate, Fluor-de-Lys developer); format: biochemical; settings: read-out: HDAC Inhibition (IC50 μM) HDAC Enzyme
Protocol: The following protocol is used to assay the compounds of the disclosure.
The mixture is pre-incubated for 5 minutes at room temperature. The reaction is started by bringing the temperature to 37° C. and adding 16 μl substrate. Total reaction volume is 50 μl.
In the Tables 8, 9 and 10, A≦0.05 μM; 0.05 μM<B≦0.1 μM; 0.1 μM<C≦1 μM; and 1 μM<D≦10 μM.

Compound | IC50 ([1]; Table 8) [µM] | IC50 ([2]; Table 8) [µM] | IC50 ([1]; Table 10) [µM] | IC50 ([2]; Table 10) [µM]
O=C(NO)c1ccc(C2=Nc3cccc(F)c3Oc3ccccc32)cc1 [(Z)-4-(6-fluorodibenzo[b,f][1,4]oxazepin-11-yl)-N-hydroxybenzamide] | 5 to 15 | 0.05 to 0.1 | – | –
O=C(NO)c1ccc(C2=Nc3ccc(Cl)cc3Oc3ccccc32)cc1 [(Z)-4-(7-chlorodibenzo[b,f][1,4]oxazepin-11-yl)-N-hydroxybenzamide] | 5 to 15 | 0.1 to 1 | – | –
N#Cc1ccc2c(c1)Oc1ccccc1C(c1ccc(C(=O)NO)cc1)=N2 [(Z)-4-(7-cyanodibenzo[b,f][1,4]oxazepin-11-yl)-N-hydroxybenzamide] | 5 to 15 | < 0.05 | – | –
O=C(NO)c1ccc(C2=Nc3cc(Cl)ccc3Oc3ccccc32)cc1 [(Z)-4-(8-chlorodibenzo[b,f][1,4]oxazepin-11-yl)-N-hydroxybenzamide] | 5 to 15 | 0.1 to 1 | – | –
N#Cc1ccc2c(c1)N=C(c1ccc(C(=O)NO)cc1)c1ccccc1O2 [(Z)-4-(8-cyanodibenzo[b,f][1,4]oxazepin-11-yl)-N-hydroxybenzamide] | 1 to 5 | 0.05 to 0.1 | – | –
O=C(NO)c1ccc(C2=Nc3c(F)cccc3Oc3ccccc32)cc1 [(Z)-4-(9-fluorodibenzo[b,f][1,4]oxazepin-11-yl)-N-hydroxybenzamide] | 1 to 5 | 0.05 to 0.1 | – | –
O=C(NO)c1ccc(C2=Nc3ccccc3N(C3CC3)c3ncccc32)cc1 [(Z)-4-(11-cyclopropyl-11H-benzo[b]pyrido[2,3-e][1,4]diazepin-5-yl)-N-hydroxybenzamide] | < 1 | < 0.05 | – | –
O=C(NO)c1ccc(C2=Nc3ccccc3Oc3ncccc32)cc1 [(Z)-4-(benzo[b]pyrido[3,2-f][1,4]oxazepin-5-yl)-N-hydroxybenzamide] | 1 to 5 | 0.05 to 0.1 | – | –
O=C(NO)c1ccc(C2=Nc3ccccc3Oc3cnccc32)cc1 [(Z)-4-(benzo[b]pyrido[4,3-f][1,4]oxazepin-5-yl)-N-hydroxybenzamide] | < 1 | 0.1 to 1 | – | –
O=C(NO)c1ccc(C2=Nc3cccnc3Oc3ccccc32)cc1 [(Z)-4-(benzo[f]pyrido[2,3-b][1,4]oxazepin-6-yl)-N-hydroxybenzamide] | 1 to 5 | < 0.05 | – | –
O=C(NO)c1ccc(C2=Nc3ccsc3Oc3ccccc32)cc1 [(Z)-4-(benzo[f]thieno[2,3-b][1,4]oxazepin-5-yl)-N-hydroxybenzamide] | 1 to 5 | 0.1 to 1 | – | –
O=C(NO)c1ccc(C2=Nc3ccccc3Oc3ccccc32)cc1F [(Z)-4-(dibenzo[b,f][1,4]oxazepin-11-yl)-2-fluoro-N-hydroxybenzamide] | 5 to 15 | 0.1 to 1 | – | –

The remaining lines, values ahead:

IC50 ([1]; Table 8) [µM] | IC50 ([2]; Table 8) [µM] | IC50 ([1]; Table 10) [µM] | IC50 ([2]; Table 10) [µM] | Compound
1 to 5 | 0.05 to 0.1 | – | – | CCN1c2ccccc2N=C(c2ccc(C(=O)NO)cc2)c2ccccc21 [(Z)-4-(5-ethyl-5H-dibenzo[b,e][1,4]diazepin-11-yl)-N-hydroxybenzamide]
1 to 5 | < 0.05 | – | – | O=C(NO)c1ccc(C2=Nc3ccccc3Cn3cccc32)cc1 [(Z)-4-(5H-benzo[e]pyrrolo[1,2-a][1,4]diazepin-11-yl)-N-hydroxybenzamide]
1 to 5 | 0.1 to 1 | – | – | O=C(NO)c1ccc(C2=Nc3ccccc3Nc3ccccc32)cc1 [(Z)-4-(5H-dibenzo[b,e][1,4]diazepin-11-yl)-N-hydroxybenzamide]
– | – | 5 to 15 | 1 to 10 | O=C(CCCN1c2ccccc2C=Cc2ccccc21)NO [(Z)-4-(5H-dibenzo[b,f]azepin-5-yl)-N-hydroxybutanamide]
1 to 5 | 0.05 to 0.1 | – | – | O=C(NO)c1ccc(C2=Nc3cc(Cl)ccc3Nc3ccccc32)cc1 [(Z)-4-(8-oro-5H-dibenzo[b,e][1,4]diazepin-11-yl)-N-hydroxybenzamide]
< 1 | < 0.05 | – | – | CCN1c2ccccc2N=C(c2ccc(C(=O)NO)cc2)c2cccnc21 [(Z)-4-(11-ethyl-11H-benzo[b]pyrido[2,3-e][1,4]diazepin-5-yl)-N-hydroxybenzamide]
– | – | 5 to 15 | < 0.05 | O=C(NO)c1ccc(CN2c3ccccc3C=Cc3ccccc32)cc1 [(Z)-4-((5H-dibenzo[b,f]azepin-5-yl)methyl)-N-hydroxybenzamide]
